Experimental data published in US10919891B2, “Heterocyclic compound” (TAKEDA PHARMACEUTICAL COMPANY LIMITED, priority 2017, dated 2021).

target: T1, human CaSR (Homo sapiens, UniProt P41180); assay: Human CaSR Antagonist Activity (CHO cells, NFAT-Luciferase reporter); assay type: cell-based; conditions: 3.3 μm test compound; CaCl2 final 1.3 mM; 100% = reference carboxamide at 10 μM
T1 construct: expressed in transfected cells; host or cells: CHO cells
T1 sequence (P41180 20-1078): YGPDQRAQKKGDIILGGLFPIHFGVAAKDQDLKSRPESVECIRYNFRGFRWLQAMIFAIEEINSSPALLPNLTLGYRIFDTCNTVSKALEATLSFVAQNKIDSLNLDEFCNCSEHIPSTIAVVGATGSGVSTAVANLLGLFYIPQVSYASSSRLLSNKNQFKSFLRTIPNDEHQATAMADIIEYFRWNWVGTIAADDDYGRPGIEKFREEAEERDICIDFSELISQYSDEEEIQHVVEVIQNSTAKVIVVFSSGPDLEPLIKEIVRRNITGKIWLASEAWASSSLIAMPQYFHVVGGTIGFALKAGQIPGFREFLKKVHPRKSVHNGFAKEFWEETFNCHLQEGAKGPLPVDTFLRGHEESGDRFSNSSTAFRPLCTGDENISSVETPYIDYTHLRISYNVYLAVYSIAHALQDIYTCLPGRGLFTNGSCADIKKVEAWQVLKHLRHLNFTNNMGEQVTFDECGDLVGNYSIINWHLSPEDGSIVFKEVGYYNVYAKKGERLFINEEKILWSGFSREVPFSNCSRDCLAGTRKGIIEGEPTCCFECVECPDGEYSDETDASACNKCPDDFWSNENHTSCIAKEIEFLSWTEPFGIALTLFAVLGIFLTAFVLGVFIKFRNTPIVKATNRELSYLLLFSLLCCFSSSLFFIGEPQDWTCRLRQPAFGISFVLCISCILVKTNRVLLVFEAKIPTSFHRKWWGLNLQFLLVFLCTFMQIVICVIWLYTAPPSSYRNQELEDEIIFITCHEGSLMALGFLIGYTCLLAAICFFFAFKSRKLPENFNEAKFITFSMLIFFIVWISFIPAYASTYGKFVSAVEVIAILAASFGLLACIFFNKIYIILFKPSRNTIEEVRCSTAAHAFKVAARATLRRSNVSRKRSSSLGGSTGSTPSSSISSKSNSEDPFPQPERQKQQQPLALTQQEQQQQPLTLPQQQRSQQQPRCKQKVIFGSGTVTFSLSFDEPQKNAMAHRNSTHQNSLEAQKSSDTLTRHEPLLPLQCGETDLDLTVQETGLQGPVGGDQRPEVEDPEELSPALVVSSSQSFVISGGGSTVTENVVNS
Method: CaSR antagonist activity measurement was performed using Bright-Glo Luciferase assay system (Promega Corporation). CHO cells in which human CaSR and NFAT-Luciferase reporter gene were forcibly expressed were suspended in MEM alpha (Wako Pure Chemical Industries, Ltd.) containing 10% dialyzed serum (HyClone). The cells in suspension was seeded in 384-well white plate (Corning) at 10,000/20 μL/well, and cultured in an incubator of 37° C., 5% CO2 for one day. A diluent of Test compound was prepared with assay buffer (MEM alpha containing 10 mM HEPES (Life Technologies) and 10% dialysis serum). The diluent was added to the plate at 5 μL/well and allowed to stand at 37° C. for 10 minutes. Further, a diluent of 7.8 mM CaCl2 prepared with assay buffer (final concentration 1.3 mM) was added at 5 μl/well and allowed to stand in an incubator of 37° C., 5% CO2 for 2 hours. Bright-Glo reagents (Promega Corporation) were added at 10 μL/well, and the obtained mixture was stirred for 5 minutes, and then luminescence intensity was measured using Multi-label reader Envision (PerkinElmer, Inc.). The activity (%) of the test compound was calculated with the definitions in which the luminescence intensity when DMSO is added in place of the test compound is defined as 0% inhibition; and the luminescence intensity when (5R)—N-(1-ethyl-1-(4-ethylphenyl)propyl)-2,7,7-trimethyl-5-phenyl-4,5,6,7-tetrahydropyrazolo[1,5-a]Pyrimidine-3-carboxamide at final concentration of 10 μM is added is defined as 100% inhibition.

| Structure (SMILES) | Inhibition rate (%) at 3.3 μm [%] |
| --- | --- |
| CC1(C)C[C@H](c2ccccc2)Nc2c(C(=O)N3CC4CC4(c4ccc(C(F)(F)F)cc4F)C3)cnn21 (stereo partly drawn) [Example 28, ((5R)-7,7-Dimethyl-5-phenyl-4,5,6,7-tetrahydropyrazolo[1,5-a]pyrimidin-3-yl)(1-(2-fluoro-4-(trifluoromethyl)phenyl)-3-azabicyclo[3.1.0]hex-3-yl)methanone] | 101 |
| CC1(C)C[C@H](c2ccccc2)Nc2c(C(=O)N3CC4CC4(c4ccc(C(F)(F)F)cc4F)C3)cnn21 (stereo partly drawn) [Example 29, ((5R)-7,7-Dimethyl-5-phenyl-4,5,6,7-tetrahydropyrazolo[1,5-a]pyrimidin-3-yl)(1-(2-fluoro-4-(trifluoromethyl)phenyl)-3-azabicyclo[3.1.0]hex-3-yl)methanone] | 92 |

Other lines, results leading:

| Inhibition rate (%) at 3.3 μm [%] | Structure (SMILES) |
| --- | --- |
| 95 | CC1(C)C[C@H](c2ccccc2)Nc2c(C(=O)N3CC4CC4(c4cccc(Cl)c4)C3)cnn21 (stereo partly drawn) [Example 17, (1-(3-Chlorophenyl)-3-azabicyclo[3.1.0]hex-3-yl)((5R)-7,7-dimethyl-5-phenyl-4,5,6,7-tetrahydropyrazolo[1,5-a]pyrimidin-3-yl)methanone] |
| 93 | COc1cccc(C23CC2CN(C(=O)c2cnn4c2N[C@@H](c2ccccc2)CC4(C)C)C3)c1 (stereo partly drawn) [Example 20, ((5R)-7,7-Dimethyl-5-phenyl-4,5,6,7-tetrahydropyrazolo[1,5-a]pyrimidin-3-yl)(1-(3-methoxyphenyl)-3-azabicyclo[3.1.0]hex-3-yl)methanone] |
| 92 | Cc1cccc(C23CC2CN(C(=O)c2cnn4c2N[C@@H](c2ccccc2)CC4(C)C)C3)c1 (stereo partly drawn) [Example 23, ((5R)-7,7-Dimethyl-5-phenyl-4,5,6,7-tetrahydropyrazolo[1,5-a]pyrimidin-3-yl)(1-(3-methylphenyl)-3-azabicyclo[3.1.0]hex-3-yl)methanone] |

same assay, conditions: CHO, 2 h, 3.3 μm test compound; CaCl2 final 1.3 mM; 100% = reference carboxamide at 10 μM; read-out: Inhibition rate (%) at 3.3 μm

| Structure (SMILES) | inhibition at 3.3 µM [%] |
| --- | --- |
| COc1ccc(C23CN(C(=O)c4cnn5c4N[C@@H](c4ccccc4)CC5(C)C)CC2C3(F)F)cc1 (stereo partly drawn) [Example 50, (6.6-Difluoro-1-(4-methoxyphenyl)-3-azabicyclo[3.1.0]hex-3-yl)((5R)-7,7-dimethyl-5-phenyl-4,5,6,7-tetrahydropyrazolo[1,5-a]pyrimidin-3-yl)methanone] | 128 |
| CC1(C)C[C@H](c2ccccc2)Nc2c(C(=O)N3CC4C[C@]4(c4ccc(C(F)(F)F)cc4)C3)cnn21 (stereo partly drawn) [Example 8, ((5R)-7,7-Dimethyl-5-phenyl-4,5,6,7-tetrahydropyrazolo[1,5-a]pyrimidin-3-yl)(1-(4-(trifluoromethyl)phenyl)-3-azabicyclo[3.1.0]hex-3-yl)methanone] | 92 |
| COc1cccc(C23CN(C(=O)c4cnn5c4N[C@@H](c4ccccc4)CC5(C)C)CC2C3(F)F)c1 (stereo partly drawn) [Example 51, (6,6-Difluoro-1-(3-methoxyphenyl)-3-azabicyclo[3.1.0]hex-3-yl)((5R)-7,7-dimethyl-5-phenyl-4,5,6,7-tetrahydropyrazolo[1,5-a]pyrimidin-3-yl)methanone] | 115 |
| CC1(C)C[C@H](c2ccccc2)Nc2c(C(=O)N3CC4CC4(c4ccc(C(F)(F)F)cc4F)C3)cnn21 (stereo partly drawn) [Example 27, ((5R)-7,7-Dimethyl-5-phenyl-4,5,6,7-tetrahydropyrazolo[1,5-a]pyrimidin-3-yl)(1-(2-fluoro-4-(trifluoromethyl)phenyl)-3-azabicyclo[3.1.0]hex-3-yl)methanone] | 111 |
| Cc1ccc(C23CN(C(=O)c4cnn5c4N[C@@H](c4ccccc4)CC5(C)C)CC2C3(F)F)cc1 (stereo partly drawn) [Example 48, (6,6-Difluoro-1-(4-methylphenyl)-3-azabicyclo[3.1.0]hex-3-yl)((5R)-7,7-dimethyl-5-phenyl-4,5,6,7-tetrahydropyrazolo[1,5-a]pyrimidin-3-yl)methanone] | 117 |
| Cc1cccc(C23CN(C(=O)c4cnn5c4N[C@@H](c4ccccc4)CC5(C)C)CC2C3(F)F)c1 (stereo partly drawn) [Example 49, (6,6-Difluoro-1-(3-methylphenyl)-3-azabicyclo[3.1.0]hex-3-yl)((5R)-7,7-dimethyl-5-phenyl-4,5,6,7-tetrahydropyrazolo[1,5-a]pyrimidin-3-yl)methanone] | 136 |
| CC1(C)C[C@H](c2ccccc2)Nc2c(C(=O)N3C[C@@H]4C[C@]4(C(F)F)C3)cnn21 [Example 47] | 96 |
| CC1(C)C[C@H](c2ccccc2)Nc2c(C(=O)N3CC4CC4(c4ccsc4)C3)cnn21 (stereo partly drawn) [Example 46, ((5R)-7,7-Dimethyl-5-phenyl-4,5,6,7-tetrahydropyrazolo[1,5-a]pyrimidin-3-yl)(1-(3-thienyl)-3-azabicyclo[3.1.0]hex-3-yl)methanone] | 99 |
| CC1(C)C[C@H](c2ccccc2)Nc2c(C(=O)N3CC4CC4(c4ccc(C(F)(F)F)c(Cl)c4)C3)cnn21 (stereo partly drawn) [Example 12, (1-(3-Chloro-4-(trifluoromethyl)phenyl)-3-azabicyclo[3.1.0]hex-3-yl)((5R)-7,7-dimethyl-5-phenyl-4,5,6,7-tetrahydropyrazolo[1,5-a]pyrimidin-3-yl)methanone] | 90 |
| COc1ccccc1C12CN(C(=O)c3cnn4c3N[C@@H](c3ccccc3)CC4(C)C)CC1C2(F)F (stereo partly drawn) [Example 52, (6,6-Difluoro-1-(2-methoxyphenyl)-3-azabicyclo[3.1 0]hex-3-yl)((5R)-7,7-dimethyl-5-phenyl-4.5,5,7-tetrahydropyrazolo[1,5-a]pyrimidin-3-yl)methanone] | 111 |

Now from value to molecule:

| inhibition at 3.3 µM [%] | Structure (SMILES) |
| --- | --- |
| 101 | Cc1cccc(C23CC2CN(C(=O)c2cnn4c2N[C@@H](c2ccccc2)CC4(C)C)C3)c1 (stereo partly drawn) [Example 22, ((5R)-7,7-Dimethyl-5-phenyl-4,5,6,7-tetrahydropyrazolo[1,5-a]pyrimidin-3-yl)(1-(3-methylphenyl)-3-azabicyclo[3.1.0]hex-3-yl)methanone] |
| 96 | CC1(C)C[C@H](c2ccccc2)Nc2c(C(=O)N3CC4CC4(c4ccncc4)C3)cnn21 (stereo partly drawn) [Example 45] |
| 99 | COc1cccc(C23CC2CN(C(=O)c2cnn4c2N[C@@H](c2ccccc2)CC4(C)C)C3)c1 (stereo partly drawn) [Example 19, ((5R)-7,7-Dimethyl-5-phenyl-4,5,6,7-tetrahydropyrazolo[1,5-a]pyrimidin-3-yl)(1-(3-methoxyphenyl)-3-azabicyclo[3.1.0]hex-3-yl)methanone] |
| 97 | CC1(C)C[C@H](c2ccccc2)Nc2c(C(=O)N3CC4CC4(c4cccc(C(F)(F)F)c4)C3)cnn21 (stereo partly drawn) [Example 25, ((5R)-7,7-Dimethyl-5-phenyl-4,5,6,7-tetrahydropyrazolo[1,5-a]pyrimidin-3-yl)(1-(3-(trifluoromethyl)phenyl)-3-azabicyclo[3.1.0]hex-3-yl)methanone] |
| 92 | CC1(C)C[C@H](c2ccccc2)Nc2c(C(=O)N3C[C@H]4C[C@@]4(c4ccc(Cl)c(Cl)c4)C3)cnn21 [Example 2, ((1R,5S)-1-(3,4-Dichlorophenyl)-3-azabicyclo[3.1.0]hex-3-yl)((5R)-7,7-dimethyl-5-phenyl-4,5,6,7-tetrahydropyrazolo[1,5-a]pyrimidin-3-yl)methanone] |
| 100 | CC1(C)C[C@H](c2ccccc2)Nc2c(C(=O)N3CC4CC4(c4cccc(Cl)c4)C3)cnn21 (stereo partly drawn) [Example 16, (1-(3-Chlorophenyl)-3-azabicyclo[3.1.0]hex-3-yl)((5R)-7,7-dimethyl-5-phenyl-4,5,6,7-tetrahydropyrazolo[1,5-a]pyrimidin-3-yl)methanone] |
